Measured values from PMC4984800, “A first in man, dose-finding study of the mTORC1/mTORC2 inhibitor OSI-027 in patients with advanced solid malignancies” (British Journal of Cancer, 2016).
Entries after “also recorded” stand apart in the source; their conditions may differ. Like-named read-outs stand apart in the source and are kept apart here.

How the values were obtained:
mTORC2 = tested on: mTORC2; set-up: method as in Bhagwat et al, 2011; Falcon et al, 2011; conditions: ref Bhagwat et al, 2011, Falcon et al; cited from earlier work
[1] = monkeys; preclinical; cited from earlier work
[2] = First-in-human trial: dose-limiting toxicities, adverse events, tolerability; format: in vivo
Description: Three different schedules of administration were investigated during the dose-escalation phase: once daily for three consecutive days every week (Schedule 1 (S1)), once weekly (Schedule 2 (S2)) and continuous once daily (Schedule 3 (S3)). The primary objective of the study was to determine MTD and recommend a dose and schedule of OSI-027 for phase 2 trials. Secondary objectives included tolerability, safety and pharmacokinetics profile, assessment of pharmacodynamics and preliminary antitumour activity.
Dose escalation was pursued independently for each schedule following a 3+3 design. Escalation was permitted if <33% patients on a dose level experienced dose-limiting toxicities (DLT), defined as any non-haematological adverse event grade ⩾3 (NCI-CTCAE v3) related with the study drug occurring during the first cycle of treatment (21 days), with the exception of […] fatigue, nausea, vomiting and/or diarrhoea. In addition, absolute reduction ⩾15% on LVEF was also considered DLT. MTD was defined as the immediately lower dose level to the one where ⩾33% of patients experienced DLT.
Adverse events and concomitant medications were recorded throughout the trial participation.
Guidelines for dose modifications were implemented; drug administration was halted and/or dose was reduced for creatinine increase grade ⩾2 and/or if absolute values of LVEF fell ⩾15% from baseline. Permanent treatment discontinuation was mandated for LVEF drops ⩾20%.

[3] = preclinical toxicology studies; cited from earlier work
mTORC1 = tested on: mTORC1; set-up: method as in Bhagwat et al, 2011; Falcon et al, 2011; conditions: ref Bhagwat et al, 2011, Falcon et al; cited from earlier work
pS6 in tumour biopsies = experiment: Paired tumour biopsies: pS6 immunohistochemistry; format: in vivo, human
Experimental: (§1) Drug-mediated inhibition of the mTORC1 and mTORC2 signalling was evaluated through assessing modulation of phospho-4EBP1 and phospho-PRAS40 in PBMC, as well as phospho-4EBP1 and phospho-S6 in tumour biopsies. Blood aliquots were collected prior to start dosing and at prespecified time points during the first course of treatment. Fresh tumour biopsies were obtained from selected patients during the dose escalation stage and from all patients in the expansion cohorts, at baseline and during cycle 1.
(§2) Drug-mediated inhibition of mTORC1 and mTORC2 signalling by OSI-027 was assessed by measuring inhibition of their effectors p4EBP1 (Thr37/46) and pPRAS40 (Thr246), respectively, in PBMC. In addition, paired tumour biopsies at screening and during first month of therapy were used to study target modulation.
(§3) In 21 cases, pre- and postdose paired tumour biopsies were amenable for PD studies.

advanced solid tumours = experiment: Preliminary antitumour activity (RECIST); format: in vivo, human
Experimental: Assessments by imaging techniques (CT and/or MRI) were performed every 8–12 weeks or earlier if clinically indicated. Descriptive statistics were used to summarise the safety data, including all patients who received at least one dose of OSI-027. All patients who completed the pharmacokinetic sampling were included in the PK analyses, which used descriptive statistics to summarise AUC0–∞, AUC0–t, Cmax, Clast, Tmax, Tlast, %AUC extrapolated, T1/2, clearance (Cl/F) and volume of distribution (Vz/F). Exploratory analysis were planned to correlate pharmacodynamics and pharmacokinetics. Response to treatment was evaluated according to Response Evaluation Criteria in Solid Tumors (RECIST) ([Therasse et al, 2000]).

[4] = tested on: p4EBP1 in tumour biopsies; experiment: Paired tumour biopsies: p4EBP1 immunohistochemistry; format: in vivo, human
Experimental: as §1, §2, §3

[5] = tested on: p4EBP1 (Thr37/46) in PBMC; experiment: Pharmacodynamics in PBMC: p4EBP1 (Thr37/46), mTORC1 effector; format: in vivo, human
Experimental: as §1, §2

tumour xenograft models = tested on: tumour xenograft models; set-up: method as in Bhagwat et al, 2011; Falcon et al, 2011; conditions: ref Bhagwat et al, 2011, Falcon et al; cited from earlier work
tumour cell lines = tested on: tumour cell lines; set-up: method as in Bhagwat et al, 2011; Falcon et al, 2011; conditions: including models resistant to rapalogues, ref Bhagwat et al, 2011, Falcon et al, read-out: IC50 values in a broad panel of tumour cell lines; cited from earlier work
[6] = rodents; preclinical; cited from earlier work
[7] = metastatic colorectal cancer, S3–10 mg

COc1cccc2cc(-c3nc([C@H]4CC[C@H](C(=O)O)CC4)n4ncnc(N)c34)[nH]c12 [OSI-027]
IC50 (mTORC2): 65 nM
maximum tolerated dose (MTD) in toxicology studies [1]: 2.5 mg kg^−1 per day
highest potentially feasible dose ([2]; S1, QD three consecutive days per week): 120 mg
MTD ([2]; S2, once weekly, 10 to 240 mg QWK tested): Dose escalation was discontinued before a formal MTD was reached
MTD ([2]; S3, continuous once daily): 30 mg QD
Maximum creatinine on treatment CTCAE grade 4, patients ([2]; human, in vivo): 0
creatinine rise (increase of at least one grade in CTCAE v3), patients ([2]; human, in vivo): 26%
cutaneous toxicities, mainly grade 1–2 macular or maculo-papular rash, patients ([2]; human, in vivo): 25%
patients who discontinued drug permanently due to drug-related adverse events ([2]; human, in vivo): 8.1%
patients with a grade ⩾3 drug-related event ([2]; human, in vivo): 17%
patients with a drop in the LVEF ([2]; human, in vivo, 3 weeks): 38%
Dose limiting toxicity ([2]; human, in vivo, 12 days): Elevated serum creatinine (G2)
Dose limiting toxicity ([2]; human, in vivo, 13 days): Fatigue (G3)
Dose limiting toxicity ([2]; human, in vivo, 14 days): Bone pain (G3)
Dose limiting toxicity ([2]; human, in vivo, 15 days): Stress-induced cardiomyopathy (G3)
DLT grade 2 decreased LVEF ([2]; human, in vivo, 21 days): 1 events
DLT grade 3 bone pain ([2]; human, in vivo, 21 days): 1 events
DLT grade 3 cardiomyopathy ([2]; human, in vivo, 21 days): 1 events
DLT grade 3 fatigue ([2]; human, in vivo, 21 days): 4 events
DLT grade 3 hyperglycaemia ([2]; human, in vivo, 21 days): 1 events
DLT grade 3 maculo-papular rash ([2]; human, in vivo, 21 days): 1 events
DLT grade ⩾2 creatinine rise ([2]; human, in vivo, 21 days): 2 events
Dose limiting toxicity ([2]; human, in vivo, 21 days): Urticaria (G3)
patients with dose-limiting toxicities (DLT) ([2]; human, in vivo, 21 days): 11 patients
Dose limiting toxicity ([2]; human, in vivo, 22 days): Decreased LVEF (G2)
patients needing a dose reduction ([2]; in vivo): over half of the patients
individuals who died during study participation ([2]; including post-treatment 30 days follow-up, none judged drug-related): eight
preclinical toxicology findings [3]: signs of immunosuppression, renal function impairment, glucose metabolism abnormalities as well as potential for cardiac and ocular toxicities at high doses
IC50 (mTORC1): 22 nM
average reduction in pS6 expression (IHC) (pS6 in tumour biopsies; 90 mg): 28.6%
average reduction in pS6 (IHC) (pS6 in tumour biopsies; 120 mg): 75.3%
patients with stable disease at first follow-up radiological assessment (advanced solid tumours; 8–12 weeks): 29.7%
RECIST responses (complete or partial) (advanced solid tumours; all patients): No RECIST responses were recorded; also recorded: No complete or partial responses were observed
patients free of progression for ⩾24 weeks (advanced solid tumours; all patients): six
patients with stable disease >6 months (advanced solid tumours; all patients): 5%
reduction in the sum of target lesions diameters, single patient (advanced solid tumours; metastatic GIST, S1–120 mg): 20%
time on therapy, single patient (advanced solid tumours; metastatic GIST, S1–120 mg): 45 weeks
reduction in the size of the lesions, single patient (advanced solid tumours; [7]): 18%
time on treatment, single patient (advanced solid tumours; [7]): 49 weeks
time free of progression, single patient (advanced solid tumours; metastatic uveal melanoma, S3–35 mg): 48 weeks
average reduction in p4EBP1 IHC staining ([4]; 90 mg—S1, paired tumour biopsies): 22.3%
average reduction in p4EBP1 IHC staining ([4]; 120 mg—S1, paired tumour biopsies): 49.5%
average reduction in p4EBP1 IHC staining ([4]; 240 mg—S2, paired tumour biopsies): 67.6%
inhibition of p4EBP1 in PBMC ([5]; 4 h after dosing, doses over 30 mg, almost universal): Over 50%
inhibition of p4EBP1 in PBMC ([5]; S1, 90 mg, during the 3 days on treatment): Over 50%
target inhibition (p4EBP1) in PBMC ([5]; S1, 160 mg, during the 4-days off treatment, most patients): Over 50%
anti tumour activity in tumour xenograft models (tumour xenograft models): anti tumour activity was documented
IC50 (tumour cell lines): < 10000 nM
maximum tolerated dose (MTD) in toxicology studies [6]: 20 mg kg^−1 per day
